Experimental data published in the NIST ThermoML archive (doi:10.1021/acs.jced.5b00197).

Experiments:
[1] = refractive index (Na D-line) (dimensionless); settings: 94.64 kPa, Liquid, Standard Abbe refractometry
[2] = refractive index (other wavelength) (dimensionless); settings: 94.64 kPa, Liquid, Standard Abbe refractometry
[3] = 96.64 kPa, Liquid, mechanical oscillator
[4] = refractive index (other wavelength) (dimensionless); xn = mol fraction of the nth substance listed; settings: 94.64 kPa, Liquid, Standard Abbe refractometry, x2 = 0
[5] = refractive index (Na D-line) (dimensionless); xn = mol fraction of the nth substance listed; settings: 94.64 kPa, Liquid, Standard Abbe refractometry, x2 = 0
[6] = xn = mol fraction of the nth substance listed; settings: 96.64 kPa, Liquid, mechanical oscillator, x2 = 0

CC(=O)O [acetic acid]
Settings | mass density, 293.15 K [kg/m3] | mass density, 298.15 K [kg/m3] | mass density, 303.15 K [kg/m3] | refractive index, 293.15 K | refractive index, 298.15 K | refractive index, 303.15 K
[1] | – | – | – | 1.37224 | 1.37012 | 1.36809
[3] | 1049.63 | 1043.57 | 1037.64 | – | – | –

refractive index, [2]
Settings | Wavelength=404.7 nm | Wavelength=435.8 nm | Wavelength=486.1 nm | Wavelength=546.1 nm | Wavelength=587.6 nm | Wavelength=632.8 nm | Wavelength=644 nm | Wavelength=706.5 nm
293.15 K | 1.38345 | 1.38034 | 1.37681 | 1.37386 | 1.3723 | 1.37087 | 1.37055 | 1.36896
298.15 K | 1.38126 | 1.37816 | 1.37466 | 1.37174 | 1.37018 | 1.36876 | 1.36844 | 1.36686
303.15 K | 1.37917 | 1.37611 | 1.37261 | 1.36968 | 1.36815 | 1.36675 | 1.36643 | 1.36485

Cc1ccccc1 [toluene]
Settings | mass density, 293.15 K [kg/m3] | mass density, 298.15 K [kg/m3] | mass density, 303.15 K [kg/m3] | refractive index, 293.15 K | refractive index, 298.15 K | refractive index, 303.15 K
[1] | – | – | – | 1.49687 | 1.49406 | 1.49124
[3] | 866.75 | 861.74 | 856.81 | – | – | –

refractive index, [2]
Settings | Wavelength=404.7 nm | Wavelength=435.8 nm | Wavelength=486.1 nm | Wavelength=546.1 nm | Wavelength=587.6 nm | Wavelength=632.8 nm | Wavelength=644 nm | Wavelength=706.5 nm
293.15 K | 1.52597 | 1.51768 | 1.50826 | 1.50069 | 1.497 | 1.49379 | 1.49306 | 1.48975
298.15 K | 1.52295 | 1.51473 | 1.50537 | 1.49785 | 1.49419 | 1.49101 | 1.49028 | 1.48697
303.15 K | 1.51996 | 1.51177 | 1.50248 | 1.495 | 1.49137 | 1.4882 | 1.48748 | 1.48419

Cc1ccccc1 [toluene] + CC(=O)O
refractive index, [4]
Settings | Wavelength=404.7 nm | Wavelength=435.8 nm | Wavelength=486.1 nm | Wavelength=546.1 nm | Wavelength=587.6 nm | Wavelength=632.8 nm | Wavelength=644 nm | Wavelength=706.5 nm
293.15 K | 1.52597 | 1.51768 | 1.50826 | 1.50069 | 1.497 | 1.49379 | 1.49306 | 1.48975
298.15 K | 1.52295 | 1.51473 | 1.50537 | 1.49785 | 1.49419 | 1.49101 | 1.49028 | 1.48697
303.15 K | 1.51996 | 1.51177 | 1.50248 | 1.495 | 1.49137 | 1.4882 | 1.48748 | 1.48419

Settings | mass density, 293.15 K [kg/m3] | mass density, 298.15 K [kg/m3] | mass density, 303.15 K [kg/m3] | refractive index, 293.15 K | refractive index, 298.15 K | refractive index, 303.15 K
[5] | – | – | – | 1.49687 | 1.49406 | 1.49124
[6] | 866.75 | 861.74 | 856.81 | – | – | –

O [water]
Settings | mass density, 298.15 K [kg/m3] | mass density, 303.15 K [kg/m3] | refractive index, 293.15 K | refractive index, 298.15 K | refractive index, 303.15 K
[1] | – | – | 1.33308 | 1.33257 | 1.33198
[3] | 996.61 | 994.87 | – | – | –

refractive index, [2]
Settings | Wavelength=404.7 nm | Wavelength=435.8 nm | Wavelength=486.1 nm | Wavelength=546.1 nm | Wavelength=587.6 nm | Wavelength=632.8 nm | Wavelength=644 nm | Wavelength=706.5 nm
293.15 K | 1.34276 | 1.34021 | 1.33716 | 1.33454 | 1.33313 | 1.33183 | 1.33153 | 1.33003
298.15 K | 1.34222 | 1.33968 | 1.33665 | 1.33402 | 1.33262 | 1.33132 | 1.33102 | 1.32954
303.15 K | 1.34161 | 1.33909 | 1.33604 | 1.33344 | 1.33203 | 1.33073 | 1.33044 | 1.32897

O [water] + CC(=O)O
refractive index, [4]
Settings | Wavelength=404.7 nm | Wavelength=435.8 nm | Wavelength=486.1 nm | Wavelength=546.1 nm | Wavelength=587.6 nm | Wavelength=632.8 nm | Wavelength=644 nm | Wavelength=706.5 nm
293.15 K | 1.34276 | 1.34021 | 1.33716 | 1.33454 | 1.33313 | 1.33183 | 1.33153 | 1.33003
298.15 K | 1.34222 | 1.33968 | 1.33665 | 1.33402 | 1.33262 | 1.33132 | 1.33102 | 1.32954
303.15 K | 1.34161 | 1.33909 | 1.33604 | 1.33344 | 1.33203 | 1.33073 | 1.33044 | 1.32897

Settings | mass density, 298.15 K [kg/m3] | mass density, 303.15 K [kg/m3] | refractive index, 293.15 K | refractive index, 298.15 K | refractive index, 303.15 K
[5] | – | – | 1.33308 | 1.33257 | 1.33198
[6] | 996.61 | 994.87 | – | – | –
